The target in one test is T1, TNK2 (Homo sapiens, UniProt Q07912).
T1 construct: purchased CEREP Panlabs (Eurofins)
Kind of test: CEREP protein kinase assay. Type of test: biochemical.

A further test deals with MDA-MB-231met2 cells. In words: MS detection of ZMP in cultured cells. The note with it: regular RPMI, calculated with 4 pL cell volume. In kind it is cell-based, human. As for the experimental part:
To mimic human plasma levels, low folate media is traditionally used in which the folate comes only from the defined fetal bovine serum. […] Because LSN3213128 would be dosed in mice on normal diet, cell line screening was performed under standard tissue culture conditions to identify cell lines sensitive to treatment under high folate conditions. In order to compare tissue culture values with tumor levels, an average 4 pL cell volume[36] was used to calculate cellular ZMP concentrations. In MDA-MB-231[…] cells using regular RPMI, the peak intracellular ZMP levels are about 770 μM while in the salvage deficient A9 cells ZMP is 6,500 μM. […] It is not surprising that in vivo in mice on standard chow where folate plasma levels are >10-fold lower than tissue culture that tumor ZMP levels are also lower. […] ZMP was detected in cultured cells via mass spec analysis. Cells were plated in 96-well plates at 25,000 cells per well in 100 μL with either high or low folate RPMI media and incubated overnight at 37 °C with 5% CO2. […] […] dUMP were detected using positive ion TurboIonSpray® multiple reaction monitoring mode and the data were processed with AB Sciex MultiQuantTM. Back-calculated ZMP concentrations were fit to a four-parameter logistic equation using ACTIVITYBASE 4.0 to determine EC50 values relative to the maximum observed metabolite levels.

Another test concerns the target T2, TYK2 (Homo sapiens, UniProt P29597).
T2 construct: purchased CEREP Panlabs (Eurofins)
Kind of test: CEREP protein kinase assay. In kind it is biochemical.

The subject of test [1] is AMPK T172 phosphorylation in A9 tumors. In words: Western analysis of tumors. In kind it is in vivo, mouse. As to conditions: 100 mg/kg x12 PO.
Another test concerns the target T3, SGK1 (Homo sapiens, UniProt O00141).
T3 construct: purchased CEREP Panlabs (Eurofins)
T3 sequence (O00141 1-431): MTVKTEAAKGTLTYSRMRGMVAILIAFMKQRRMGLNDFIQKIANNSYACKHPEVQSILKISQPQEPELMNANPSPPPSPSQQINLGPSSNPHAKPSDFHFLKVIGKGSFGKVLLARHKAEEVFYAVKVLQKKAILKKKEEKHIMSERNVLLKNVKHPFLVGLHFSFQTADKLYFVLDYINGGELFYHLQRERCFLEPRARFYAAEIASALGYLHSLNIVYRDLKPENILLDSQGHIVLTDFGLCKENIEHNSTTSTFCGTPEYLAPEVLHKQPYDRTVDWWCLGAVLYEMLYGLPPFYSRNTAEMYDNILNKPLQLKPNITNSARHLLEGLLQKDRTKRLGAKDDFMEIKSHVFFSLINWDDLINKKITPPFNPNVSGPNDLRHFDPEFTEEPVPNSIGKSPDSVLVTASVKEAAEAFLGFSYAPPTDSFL
Kind of test: CEREP protein kinase assay. In kind it is biochemical.

The next test has as its system MDA-MB-231 (mammary). In words: MS detection of ZMP in cultured cells. Type of test: cell-based, human. As to conditions: for EC50: Homo sapiens, 16 hours. As for the experimental part: (§1) Cells lines were acquired from cell banks, see supplemental material, grown using the cell banks recommended culture conditions (Supplemental Table 3). In some experiments noted “low folate” the cells were washed and grown in folate free RPMI-1640 media (Gibco #27016-021) supplemented with 5 ml 1 M Hepes, 5 ml 100 mM Na pyruvate, 2.5 mg/ml glucose and 10% defined FBS (Hyclone #SH30070) per 500 mL media for 5–7 days to deplete intracellular folate levels prior to the start of the experiment. Where noted, cells were maintained in complete “high folate” RPMI-1640 media (ATCC #30-2001) with 10% defined FBS to contrast with the low folate conditions.
(§2) ZMP was detected in cultured cells via mass spec analysis. Cells were plated in 96-well plates at 25,000 cells per well in 100 µL with either high or low folate RPMI media and incubated overnight at 37 °C with 5% CO2. Cells were treated with inhibitor compounds for 16 hours, 0.5% DMSO final concentration. Growth media was decanted and cells were lysed for 10 min at room temperature with 50 µL per well of 1x Sure Fire Lysis buffer (Perkin Elmer, SureFire kit component). Aliquots (40 µL) of standard or sample were combined in a deep 96-well plate with 160 µL of internal standard solution containing ^13C5-ZMP (custom synthesis) and ^13C5-AICAr (custom synthesis) at 100 ng/mL in 40 mM ammonium acetate, pH 4. 400 µL of dichloromethane was added to each sample. Samples were sealed, vortexed for 5 minutes, and placed in the refrigerator for at least 30 minutes. The samples were centrifuged at 4 °C for 10 minutes at 16,600 g. 75 µL of the aqueous layer were transferred to a clean 96-well plate and seal prior to analysis.
(§3) The LC-MS method utilizes a Shimadzu Prominence 20 A HPLC system connected to an AB Sciex 5500™ or an AB Sciex 6500™ triple quadrupole mass spectrometer. Extracted samples were separated using a Thermo Hypercarb™ Javelin guard column (2.1 × 20 mm, 5 µm) with an injection volume of 15 µL and a flow rate of 1 mL/minute.
(§4) ZMP, AICAr and dUMP were detected using positive ion TurboIonSpray® multiple reaction monitoring mode and the data were processed with AB Sciex MultiQuant™. Back-calculated ZMP concentrations were fit to a four-parameter logistic equation using ACTIVITYBASE 4.0 to determine EC50 values relative to the maximum observed metabolite levels.

Another test relates to NCI-H460 (lung). In words: MS detection of ZMP in cultured cells. Type of test: cell-based, human. The note with it: for EC50: 16 hours; for peak intracellular ZMP levels: NCI-H460 cells, calculated with 4 pL cell volume. As for the experimental part:
as §1, §2, §3, §4

Where two headings read alike, the source gives them in different places.

T2 sequence (P29597 whole entry): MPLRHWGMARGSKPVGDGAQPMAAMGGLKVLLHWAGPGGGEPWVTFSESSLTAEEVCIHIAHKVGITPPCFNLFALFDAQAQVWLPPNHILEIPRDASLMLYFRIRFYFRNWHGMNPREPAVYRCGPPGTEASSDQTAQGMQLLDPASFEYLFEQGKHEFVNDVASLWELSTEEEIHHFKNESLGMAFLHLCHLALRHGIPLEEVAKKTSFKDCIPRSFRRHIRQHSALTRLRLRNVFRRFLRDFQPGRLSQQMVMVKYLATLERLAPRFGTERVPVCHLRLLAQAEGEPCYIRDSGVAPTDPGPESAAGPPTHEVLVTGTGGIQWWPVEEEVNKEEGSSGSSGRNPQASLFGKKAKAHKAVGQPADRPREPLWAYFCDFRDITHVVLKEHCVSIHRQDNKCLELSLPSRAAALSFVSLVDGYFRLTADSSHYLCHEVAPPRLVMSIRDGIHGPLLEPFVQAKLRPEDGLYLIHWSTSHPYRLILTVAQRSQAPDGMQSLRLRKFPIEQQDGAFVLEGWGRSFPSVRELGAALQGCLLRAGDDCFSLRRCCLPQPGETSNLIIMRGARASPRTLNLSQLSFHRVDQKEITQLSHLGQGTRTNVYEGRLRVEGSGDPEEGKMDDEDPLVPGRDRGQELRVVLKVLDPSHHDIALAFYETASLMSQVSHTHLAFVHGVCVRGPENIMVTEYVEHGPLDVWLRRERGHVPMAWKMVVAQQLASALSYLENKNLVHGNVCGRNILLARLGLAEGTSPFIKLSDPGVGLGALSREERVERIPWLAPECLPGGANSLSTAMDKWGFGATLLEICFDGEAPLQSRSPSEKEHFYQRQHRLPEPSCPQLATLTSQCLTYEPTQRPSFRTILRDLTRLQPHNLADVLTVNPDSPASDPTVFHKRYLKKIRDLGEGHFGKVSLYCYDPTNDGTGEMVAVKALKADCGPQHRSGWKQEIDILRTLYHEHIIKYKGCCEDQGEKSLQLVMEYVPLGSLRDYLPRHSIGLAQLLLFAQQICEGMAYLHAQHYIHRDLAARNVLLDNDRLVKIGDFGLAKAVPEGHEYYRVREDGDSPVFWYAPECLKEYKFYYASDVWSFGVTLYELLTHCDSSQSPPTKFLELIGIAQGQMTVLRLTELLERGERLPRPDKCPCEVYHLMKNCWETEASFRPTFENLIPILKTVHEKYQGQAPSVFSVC
T1 sequence (Q07912 whole entry): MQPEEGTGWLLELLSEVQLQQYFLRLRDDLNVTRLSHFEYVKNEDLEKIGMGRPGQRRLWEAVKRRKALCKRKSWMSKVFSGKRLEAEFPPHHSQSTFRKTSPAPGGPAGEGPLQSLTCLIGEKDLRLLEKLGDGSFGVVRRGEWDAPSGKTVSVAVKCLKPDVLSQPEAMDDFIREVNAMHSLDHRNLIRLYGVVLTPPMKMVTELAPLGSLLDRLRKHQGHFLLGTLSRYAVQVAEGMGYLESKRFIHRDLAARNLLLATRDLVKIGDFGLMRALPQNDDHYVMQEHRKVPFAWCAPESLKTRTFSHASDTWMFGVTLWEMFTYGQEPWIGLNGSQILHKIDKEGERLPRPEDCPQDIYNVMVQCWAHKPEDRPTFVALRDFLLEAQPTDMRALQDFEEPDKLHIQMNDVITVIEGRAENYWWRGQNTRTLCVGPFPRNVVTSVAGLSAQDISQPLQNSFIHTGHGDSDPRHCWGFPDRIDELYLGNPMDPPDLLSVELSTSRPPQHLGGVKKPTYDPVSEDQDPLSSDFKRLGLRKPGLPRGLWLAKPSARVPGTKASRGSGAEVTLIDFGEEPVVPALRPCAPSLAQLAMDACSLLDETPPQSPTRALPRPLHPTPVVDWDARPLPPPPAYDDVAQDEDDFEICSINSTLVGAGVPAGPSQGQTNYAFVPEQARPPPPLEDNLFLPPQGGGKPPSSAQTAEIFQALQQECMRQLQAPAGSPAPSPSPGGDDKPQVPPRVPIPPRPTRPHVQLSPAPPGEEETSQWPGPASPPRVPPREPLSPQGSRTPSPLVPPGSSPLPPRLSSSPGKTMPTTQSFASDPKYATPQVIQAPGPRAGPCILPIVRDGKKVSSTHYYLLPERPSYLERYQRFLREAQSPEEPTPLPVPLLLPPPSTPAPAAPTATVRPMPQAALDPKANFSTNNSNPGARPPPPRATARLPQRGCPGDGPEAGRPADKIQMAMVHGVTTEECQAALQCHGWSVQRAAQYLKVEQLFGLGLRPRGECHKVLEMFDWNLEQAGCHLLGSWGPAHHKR

For the compound `O=c1[nH]ccc2cc(F)c(NS(=O)(=O)c3ccc(N4CC[C@@H](O)C4)s3)cc12` [LSN3213128, N-(6-Fluoro-1-oxo-1,2-dihydroisoquinolin-7-yl)-5-[(3R)-3-hydroxypyrrolidin-1-yl]thiophene-2-sulfonamide], the results for the inhibition at 0.2 µM at TNK2 (@ 0.2 uM), on TYK2 (@ 0.2 uM) and against SGK1 (@ 0.2 uM) were -2.49%, -6.85% and -4.06%, respectively. For the same compound, the inhibition (as a rule, the change of the read-out against control, counted positive when it falls) at 2 µM against TNK2 (@ 2 uM) is 16.4%; against TYK2 (@ 2 uM) it was -1.32%; against SGK1 (@ 2 uM) it was 7.54%. In addition, the inhibition at 20 µM on TNK2 (@ 20 uM) is 52.5%; at TYK2 (@ 20 uM), 35.1%; against SGK1 (@ 20 uM) it was 17.3%. The “peak intracellular ZMP levels” value was “about 770 μM” in the test with MDA-MB-231met2 cells, 540 µM with NCI-H460 (lung) (low folate media) and “about 2,700 μM” with NCI-H460 (lung) (regular RPMI). Moreover, the “AMPK T172 phosphorylation levels in vivo” value in test [1] is “showed no change”. Moreover, the EC50 (in general, the concentration giving half of the maximal effect) stood at 0.089 µM in the test on MDA-MB-231 (mammary) (RPMI media, read-out: ZMP EC50 Regular folate); 0.0076 µM in the test on MDA-MB-231 (mammary) (low folate RPMI media, read-out: ZMP EC50 Low folate); 0.438 µM in the test on NCI-H460 (lung) (Homo sapiens, NCI-H460, 16 h, NCI-H460, RPMI media, read-out: ZMP EC50 Regular folate); 0.008 µM in the test on NCI-H460 (lung) (Homo sapiens, NCI-H460, 16 h, NCI-H460, low folate RPMI media, read-out: ZMP EC50 Low folate); 0.428 ± 0.102 µM with NCI-H460 (lung) (NCI-H460, RPMI media, read-out: ZMP EC50 Regular folate). Further, the “dUMP levels in tissue culture” value is on record as “does not alter” in the test with MDA-MB-231 (mammary) (data not shown) and “does not alter” in the test on NCI-H460 (lung) (NCI-H460, data not shown).

Source of the values: paper PMC6193938, “Characterization of a novel AICARFT inhibitor which potently elevates ZMP and has anti-tumor activity in murine models” (Scientific Reports, 2018).
